According to patent EP0326329B1, “Quinazoline derivatives useful as insecticides” (Dow AgroSciences LLC, priority 1988, dated 1989):

Tests used:
Type in all cases: in vivo
[1] = tested on: Pyricularia oryzae (rice blast); conditions: disease control rating, foliar spray, host rice; 400 ppm (+++ at 100 ppm)
[2] = tested on: Botrytis cinerea (gray mold); experiment: Greenhouse Test 1, foliar spray fungicide screen (GRAY MOLD), host grape berries; conditions: disease control rating, 400 ppm (+++ at 100 ppm)
[3] = tested on: melon aphids (Aphis gossypii Glover); experiment: Mite/insect screen, sprayed squash cotyledons (MA); conditions: Aphis gossypii, percent mortality, read-out: MA RESULTS %; for mortality at 400 ppm: spray rate 400 ppm; for mortality at 200 ppm: spray rate 200 ppm
Procedure, shortened: (§1)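 Water-diluted formulations of each compound (acetone/alcohol 50:50 with 23 g/L and 13 g/L emulsifier blends) are sprayed over both leaf faces to runoff. After a standard exposure period, percent kill and phytotoxicity are recorded.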

[4] = tested on: Pseudoperonospora cubensis (downy mildew); experiment: Greenhouse Test 1, foliar spray fungicide screen (DOWN MDEW), host squash; conditions: disease control rating, 400 ppm (+++ at 100 ppm)
[5] = tested on: Puccinia recondita tritici (leaf rust); experiment: Greenhouse Test 1, foliar spray fungicide screen (LEAF RUST), host wheat; conditions: disease control rating, 400 ppm (+++ at 100 ppm)
[6] = tested on: Southern corn rootworm (Diabrotica undecimpuctata howardi Barber); experiment: Mite/insect screen, soil treatment (CRW); conditions: Diabrotica, percent mortality, soil treatment, read-out: CRW RESULTS %; for mortality at 24 ppm: CRW rate 24.00 ppm; for mortality at 12 ppm: CRW rate 12.00 ppm
Procedure, shortened: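 Five 2–3 instar larvae were placed on dry sandy soil with a presoaked corn seed after the soil had received 1 mL of compound solution and dried 6–12 h; cups were kept capped at 23°C. Mortality (%) and phytotoxicity were read after standard exposure. Formulation: acetone/alcohol with emulsifiers, water-diluted.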

[7] = tested on: southern armyworm (Spodopetra eridania Cramer); experiment: Mite/insect screen, sprayed squash leaves (SAW); conditions: Spodoptera eridania, percent mortality, read-out: SAW RESULTS %; for mortality at 400 ppm: spray rate 400 ppm; for mortality at 200 ppm: spray rate 200 ppm
Procedure, shortened: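 Steps: formulate compound in acetone/alcohol 50:50 carrying emulsifiers; dilute with water; spray leaves until runoff on upper and lower surfaces; air-dry one hour; for armyworm, excise two […] leaves into a dish of larvae; after exposure, score mortality and plant injury.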

[8] = tested on: Erysiphe graminis tritici (powdery mildew); experiment: Greenhouse Test 1, foliar spray fungicide screen (POWD MDEW), host wheat; conditions: disease control rating, 400 ppm (+++ at 100 ppm)
[9] = tested on: Twospotted spider mites (Tetranychus urticae Koch); experiment: Mite/insect screen, sprayed squash cotyledons (SM); conditions: Tetranychus urticae, percent mortality, read-out: SM RESULTS %; for mortality at 400 ppm: spray rate 400 ppm; for mortality at 200 ppm: spray rate 200 ppm
Procedure, shortened: as §1

Row | Structure (SMILES) | RICE BLAST [1] | GRAY MOLD [2] | mortality at 400 ppm [3] | DOWN MDEW [4] | LEAF RUST [5] | mortality at 24 ppm [6] | mortality at 400 ppm [7] | POWD MDEW [8] | mortality at 400 ppm [9] | mortality at 200 ppm [3] | mortality at 12 ppm [6] | mortality at 200 ppm [7] | mortality at 200 ppm [9]
1 | c1ccc(Oc2ccccc2CCNc2ncnc3ccccc23)cc1 [Example 45, N-[2-(2-phenoxyphenyl)ethyl]-4-quinazolinamine] | - (- = 0-19% control at 400 ppm) | - (- = 0-19% control at 400 ppm) | 0% | + (+ = 20-89% control at 400 ppm) | +++ (+++ = 90-100% control at 100 ppm) | 0% | 0% | + (+ = 20-89% control at 400 ppm) | 0% | – | – | – | –
2 | CCc1ccc(CCOc2ncnc3ccccc23)cc1 [Example 65, 4-[2-(4-ethylphenyl)ethoxy]quinazoline] | +++ (+++ = 90-100% control at 100 ppm) | - (- = 0-19% control at 400 ppm) | 100% | +++ (+++ = 90-100% control at 100 ppm) | +++ (+++ = 90-100% control at 100 ppm) | 0% | 0% | +++ (+++ = 90-100% control at 100 ppm) | 100% | – | – | – | –
3 | CC(C)c1ccccc1CCOc1ncnc2ccccc12 [Example 135, 4-[2-[2-(1-methylethyl)phenyl]ethoxy]quinazoline] | +++ (+++ = 90-100% control at 100 ppm) | - (- = 0-19% control at 400 ppm) | 0% | +++ (+++ = 90-100% control at 100 ppm) | +++ (+++ = 90-100% control at 100 ppm) | 0% | 0% | +++ (+++ = 90-100% control at 100 ppm) | 0% | 0% | 0% | 0% | 0%
4 | c1ccc2cc(CCNc3nc(NCCc4ccc5ccccc5c4)c4ccccc4n3)ccc2c1 [Example 32, N,N'-bis[2-(2-naphthyl)ethyl]-2,4-quinazolinediamine] | - (- = 0-19% control at 400 ppm) | - (- = 0-19% control at 400 ppm) | 0% | + (+ = 20-89% control at 400 ppm) | - (- = 0-19% control at 400 ppm) | 0% | 0% | - (- = 0-19% control at 400 ppm) | 0% | 0% | 0% | 0% | 0%
5 | N#Cc1ccc(CCOc2ncnc3ccccc23)cc1 [Example 183, 4-[2-[(4-quinazolinyl)oxy]ethyl]benzonitrile] | ++ (++ = 90-100% control at 400 ppm) | - (- = 0-19% control at 400 ppm) | 0% | + (+ = 20-89% control at 400 ppm) | +++ (+++ = 90-100% control at 100 ppm) | 80% | 0% | + (+ = 20-89% control at 400 ppm) | 0% | 0% | 0% | 0% | 0%
6 | CC(C)(C)c1ccc(CCOc2ncnc3c(Cl)cccc23)cc1 [Example 185, 8-chloro-4-[2-[4-(t-butyl)phenyl]ethoxy]quinazoline] | ++ (++ = 90-100% control at 400 ppm) | - (- = 0-19% control at 400 ppm) | 30% | ++ (++ = 90-100% control at 400 ppm) | + (+ = 20-89% control at 400 ppm) | 0% | 0% | + (+ = 20-89% control at 400 ppm) | 30% | 50% | 0% | 0% | 80%
7 | Clc1ccccc1CCOc1ncnc2ccccc12 [Example 11, 4-[2-(2-chlorophenyl)ethoxy]quinazoline] | - (- = 0-19% control at 400 ppm) | - (- = 0-19% control at 400 ppm) | 0% | +++ (+++ = 90-100% control at 100 ppm) | ++ (++ = 90-100% control at 400 ppm) | 0% | 0% | ++ (++ = 90-100% control at 400 ppm) | 0% | – | – | – | –
8 | c1ccc(Sc2cccc(CCOc3ncnc4ccccc34)c2)cc1 [Example 137, 4-[2-[3-(phenylthio)phenyl]ethoxy]quinazoline] | +++ (+++ = 90-100% control at 100 ppm) | - (- = 0-19% control at 400 ppm) | 0% | +++ (+++ = 90-100% control at 100 ppm) | +++ (+++ = 90-100% control at 100 ppm) | 100% | 0% | +++ (+++ = 90-100% control at 100 ppm) | 0% | 60% | 0% | 0% | 0%
9 | c1ccc2c(CCOc3ncnc4ccccc34)cccc2c1 [Example 91, 4-[2-(1-naphthyl)ethoxy]quinazoline] | ++ (++ = 90-100% control at 400 ppm) | - (- = 0-19% control at 400 ppm) | 0% | ++ (++ = 90-100% control at 400 ppm) | + (+ = 20-89% control at 400 ppm) | 0% | 0% | + (+ = 20-89% control at 400 ppm) | 0% | 0% | 0% | 0% | 0%
10 | CCOc1ccc(CCOc2ncnc3ccccc23)cc1OC [Example 21, 4-[2-(4-ethoxy-3-methoxyphenyl)ethoxy]quinazoline] | +++ (+++ = 90-100% control at 100 ppm) | - (- = 0-19% control at 400 ppm) | 80% | +++ (+++ = 90-100% control at 100 ppm) | +++ (+++ = 90-100% control at 100 ppm) | 100% | 0% | +++ (+++ = 90-100% control at 100 ppm) | 60% | – | – | – | –
11 | CC(C)(C)c1ccc(CCCOc2ncnc3c(F)cccc23)cc1 [Example 149, 8-fluoro-4-[3-[4-(1,1-dimethylethyl)phenyl]propoxy]quinazoline] | - (- = 0-19% control at 400 ppm) | - (- = 0-19% control at 400 ppm) | 0% | - (- = 0-19% control at 400 ppm) | - (- = 0-19% control at 400 ppm) | 0% | 0% | ++ (++ = 90-100% control at 400 ppm) | 0% | 0% | 0% | 0% | 0%
12 | CC(C)c1ccc(CCNc2ncnc3ccc(Br)cc23)cc1 [Example 79, 6-bromo-N-[2-[4-(i-propyl)phenyl]ethyl]-4-quinazolinamine] | +++ (+++ = 90-100% control at 100 ppm) | - (- = 0-19% control at 400 ppm) | 0% | +++ (+++ = 90-100% control at 100 ppm) | ++ (++ = 90-100% control at 400 ppm) | 0% | 0% | + (+ = 20-89% control at 400 ppm) | 0% | 50% | 0% | 0% | 50%
13 | Cc1cc(C)c(CCOc2ncnc3ccccc23)c(C)c1 [Example 43, 4-[2-(2,4,6-trimethylphenyl)ethoxy]quinazoline] | ++ (++ = 90-100% control at 400 ppm) | - (- = 0-19% control at 400 ppm) | 0% | ++ (++ = 90-100% control at 400 ppm) | ++ (++ = 90-100% control at 400 ppm) | 0% | 0% | ++ (++ = 90-100% control at 400 ppm) | 0% | – | – | – | –
